Measured values published in patent US8338414B2, “Immunosuppressive agent and anti-tumor agent comprising heterocyclic compound as active ingredient” (Zenyaku Kogyo KabushikiKaisha, priority 2005, dated 2012).
Read-outs that look alike come from different tables or passages of the source.

How the values were obtained:
Daudi cells = assay: Proliferation inhibitory activity on hematologic neoplasm cells, Daudi; assay type: cell-based; settings: 3 days, Alamar Blue
Protocol: (§1) Daudi cells (5×10^5 cells/mL), Jurkat cells (5×10^5 cells/mL), THP-1 cells (5×10^5 cells/mL), U 937 cells (5×10^5 cells/mL), and HL 60 cells (5×10^5 cells/mL) suspended in RPMI 1640 medium (containing 10% fetal bovine serum, 10 mM HEPES, 1 mM pyruvic acid, 4.5 g/L glucose, 100 units/mL penicillin, and 0.1 mg/mL streptomycin) were seeded in 96 well plates at a capacity of 0.135 mL per well. Serial dilutions of test substances were added to respective wells at 15 μL/well, and incubated under conditions of carbon dioxide 5% at 37° C. for 3 days. Thereafter, Alamar Blue solution was added at 50 μL, and after incubation for one day, the fluorescence intensity at 590 nm using an excitation wavelength of 530 nm was determined by Cytoflour 4000 (Applied Biosystems).

[1] = test system: Rabbit synoviocytes HIG-82; assay: Inhibition assay for proliferation of rabbit synoviocyte; assay type: cell-based; settings: HIG-82, 3 days, Alamar Blue
Protocol: Rabbit synoviocytes HIG-82 suspended in HAM medium (containing 10% fetal bovine serum, 25 mM HEPES, and 0.1 mg/mL kanamycin) (with 4×10^4 cells/mL) were seeded in wells of a 96 well plate at 0.135 mL per well. Then, 15 μL of each of serial dilutions of test substances was added to a respective well, and incubated under conditions of carbon dioxide 5% at a temperature 37° C. Alamar Blue solution was added at 50 μL per well on day 0 and day 3, and incubated for one day, and thereafter fluorescence intensity at 590 nm using an excitation wavelength of 530 nm was determined by Cytoflour 4000 (Applied Biosystems).

Jurkat cells = assay: Proliferation inhibitory activity on hematologic neoplasm cells, Jurkat; assay type: cell-based; settings: 3 days, Alamar Blue
Protocol: as §1

THP-1 cells = assay: Proliferation inhibitory activity on hematologic neoplasm cells, THP-1; assay type: cell-based; settings: 3 days, Alamar Blue
Protocol: as §1

U 937 cells = assay: Proliferation inhibitory activity on hematologic neoplasm cells, U937; assay type: cell-based; settings: 3 days, Alamar Blue
Protocol: as §1

HL 60 cells = assay: Proliferation inhibitory activity on hematologic neoplasm cells, HL60; assay type: cell-based; settings: 3 days, Alamar Blue
Protocol: as §1

[2] = test system: allogeneic mixed lymphocyte reaction; assay: Allogeneic mixed lymphocyte reaction; assay type: cell-based, mouse; settings: C57BL/6N spleen stimulator cells, BALB/c lymph node responder cells, 86 hours, BrdU
Protocol: Spleen cells prepared from C57BL/6N female mice (8-10 weeks old, purchased from Charles River Laboratories Japan Inc.) and peripheral lymph node mononuclear cells prepared from BALB/c female mice (8-10 weeks old, purchased from Charles River Laboratories Japan Inc.) were used as stimulator cells and responder cells, respectively. The respective cells were suspended in RPMI 1640 medium (containing 10% fetal bovine serum, 100 units/mL penicillin, and 0.1 mg/mL streptomycin) (with 2×10^6 cells/mL).

[3] = test system: human peripheral blood mononuclear cells; assay: Proliferation inhibition assay for human peripheral blood mononuclear cells; assay type: cell-based; settings: PBMC, anti-CD3 and anti-CD28 antibody, 3 days, Alamar Blue
Protocol: 4 mL of blood collected from healthy subjects was placed on 3 mL of MonoPoly Resolving Medium, and after centrifugation, the mononuclear cell (PBMC) fraction was collected. After washing with saline, PBMC (1×10^5 cells/mL) was suspended in RPMI 1640 medium (containing 10% fetal bovine serum, 10 mM HEPES, 1 mM pyruvic acid, and 4.5 g/L glucose). Next, after having added an anti-CD28 antibody (1 μg/mL) to the suspension, they were seeded on an anti-human CD3 T cell activation plate (BD Bioscience) at a capacity of 0.135 mL per well. Then, serial dilutions of test substances were added to respective wells, and incubated under conditions of carbon dioxide 5% at a temperature 37° C. After 3 days, Alamar Blue solution was added at 50 μL per well, and after incubation for one day, a fluorescence intensity at 590 nm using an excitation wavelength of 530 nm was determined by Cytoflour 4000 (Applied Biosystems).

mouse spleen cells = assay: Proliferation inhibition assay for mouse spleen cells; assay type: cell-based; settings: 3 days, Alamar Blue
Protocol: Spleen cells (2×10^6 cells/mL) prepared from C57BL/6N female mice (8 weeks old, purchased from Charles River Laboratories Japan Inc.) were suspended in RPMI 1640 medium (containing 10% fetal bovine serum, 10 mM HEPES, 1 mM pyruvic acid, 4.5 g/L glucose, 100 units/mL penicillin, and 0.1 mg/mL streptomycin), and seeded in wells of a 96 well plate at 0.225 mL per well. Serial dilutions of test substances were added to respective wells, and then concanavalin A (Con A, 3 μg/mL), lipopolysaccharide (LPS, 100 μg/mL), or an anti-mouse IgM antibody (100 μg/mL) were added. Thereafter, they were incubated under conditions of carbon dioxide 5% at a temperature 37° C. for 3 days. Next, Alamar Blue solution was added at 50 μL per 150 μL, and after having cultured for one day, the fluorescence intensity at 590 nm using an excitation wavelength of 530 nm was determined by Cytoflour 4000 (Applied Biosystems).

[4] = 72 h, LPS 100 μg/mL, read-out: Inhibition of LPS response
[5] = 72 h, concanavalin A 3 μg/mL, read-out: Inhibition of Con A response
[6] = 72 h, anti-mouse IgM antibody 100 μg/mL, read-out: Inhibition of Anti-IgM antibody response

Compound | melting point | IC50 (Daudi cells; Homo sapiens, Daudi, 72 h) [nM] | IC50 ([1]; Oryctolagus cuniculus, 72 h) [nM] | IC50 (Jurkat cells; Homo sapiens, Jurkat, 72 h) [nM] | IC50 (THP-1 cells; Homo sapiens, THP-1, 72 h) [nM] | IC50 (U 937 cells; Homo sapiens, U-937, 72 h) [nM] | IC50 (HL 60 cells; Homo sapiens, HL-60, 72 h) [nM] | IC50 ([2]; Mus musculus, Lymphocyte) [nM] | IC50 ([3]; Homo sapiens, 72 h) [nM] | IC50 (mouse spleen cells; [4]) [nM] | IC50 (mouse spleen cells; [5]) [nM] | IC50 (mouse spleen cells; [6]) [nM] | other results
Cc1nc2ccccc2n1-c1nc(N2CCOCC2)nc(N2CCOCC2)n1 [Compound 1, 2-(2-Methylbenzimidazol-1-yl)-4,6-dimorpholino-1,3,5-triazine] | 218 to 220 °C (dec.) | 827 | 4850 | 5020 | 535 | > 10000 | > 10000 | 670 | 1780 | 100 to 10000 | 100 to 10000 | – | –
Oc1ccc2nc(C(F)F)n(-c3nc(N4CCOCC4)nc(N4CCOCC4)n3)c2c1 [Compound 16, 2-(2-Difluoromethyl-6-hydroxybenzimidazol-1-yl)-4,6-dimorpholino-1,3,5-triazine] | > 250 °C | 10.3 | 163 | 357 | 112 | 604 | 67.2 | 460 | 12.3 | – | – | – | –
ON1CCN(c2nc(N3CCOCC3)nc(-n3c(C(F)F)nc4ccccc43)n2)CC1 [Compound 26, 2-(2-Difluoromethylbenzimidazol-1-yl)-4-(4-hydroxypiperizin-1-yl)-6-morpholino-1,3,5-triazine] | – | – | – | – | – | – | – | – | – | – | – | – | IC50 (Daudi cells): 426 nM; IC50 [1]: 2380 nM; IC50 (Jurkat cells): 3120 nM; IC50 (THP-1 cells): 865 nM; IC50 (mouse spleen cells; LPS 100 μg/mL, read-out: Inhibition of LPS response): 1 to 100 nM; IC50 (mouse spleen cells; concanavalin A 3 μg/mL, read-out: Inhibition of Con A response): ≤ 1 nM
C[C@@H]1OCCN(c2nc(N3CCOCC3)nc(-n3cnc4ccccc43)n2)[C@H]1C (relative stereo) [Compound 2, 2-(Benzimidazol-1-yl)-4-(trans-2,3-dimethylmorpholino)-6-morpholino-1,3,5-triazine] | 147 to 150 °C | – | – | – | – | – | – | – | – | 100 to 10000 | 100 to 10000 | 100 to 10000 | –
COc1ccc2c(c1)nc(C(F)F)n2-c1nc(N2CCOCC2)nc(N2CCOCC2)n1 [Compound 23, 2-(2-Difluoromethyl-5-methoxybenzimidazol-1-yl)-4,6-dimorpholino-1,3,5-triazine] | – | 13.2 | 121 | 229 | 68.6 | 345 | 139 | 258 | 19.2 | – | – | – | –
FC(F)c1nc2ccccc2n1-c1nc(N2CCCCC2)nc(N2CCOCC2)n1 [Compound 7, 2-(2-Difluoromethylbenzimidazol-1-yl)-4-piperidino-6-morpholino-1,3,5-triazine] | 190 to 192 °C | – | – | – | – | – | – | – | – | 100 to 10000 | 100 to 10000 | 100 to 10000 | –
Nc1cccc2c1nc(C(F)F)n2-c1nc(N2CCOCC2)nc(N2CCOCC2)n1 [Compound 14, 2-(4-Amino-2-difluoromethylbenzimidazol-1-yl)-4,6-dimorpholino-1,3,5-triazine] | 214 to 216 °C (dec.) | 65.5 | 484 | 1340 | 286 | 1110 | 396 | 227 | 92.3 | – | – | – | –
Nc1nc2ccccc2n1-c1nc(N2CCOCC2)cc(N2CCOCC2)n1 [Compound 5, 2-(2-Aminobenzimidazol-1-yl)-4,6-dimorpholinopyrimidine] | 237 to 239 °C | – | – | – | – | – | – | – | – | 100 to 10000 | 100 to 10000 | 100 to 10000 | –
OCc1nc2ccccc2n1-c1nc(N2CCOCC2)nc(N2CCOCC2)n1 [Compound 3, 4,6-Dimorpholino-2-(2-hydroxymethylbenzimidazol-1-yl)-1,3,5-triazine] | 208 to 210 °C (dec.) | 379 | 1780 | 3270 | 135 | 4140 | 3160 | 600 | 1130 | 100 to 10000 | 100 to 10000 | – | –
CC1CN(c2cc(N3CC(C)OC(C)C3)nc(-n3c(C(F)F)nc4cc(N)ccc43)n2)CC(C)O1 (stereo not shown) [Compound 17, 2-(5-Amino-2-difluoromethylbenzimidazol-1-yl)-4,6-di(2,6-dimethylmorpholino)pyrimidine] | 157 to 160 °C | – | – | – | – | – | – | – | – | 10000 to 100000 | 100 to 10000 | 100 to 10000 | –
2-(2-Difluoromethyl-4-hydroxybenzimidazol-1-yl)-4-morpholino-6-(2,6-dimethylmorpholino)pyrimidine [Compound 11] | – | – | – | – | – | – | – | – | – | – | – | – | IC50 (Daudi cells): 2750 nM; IC50 [1]: > 10000 nM; IC50 (Jurkat cells): > 10000 nM; IC50 (THP-1 cells): > 10000 nM; IC50 (U 937 cells): > 10000 nM; IC50 (HL 60 cells): > 10000 nM; IC50 [2]: 1430 nM; IC50 [3]: > 10000 nM
CC1(C)CN(c2cc(N3CCOCC3)nc(-n3c(C(F)F)nc4c(O)cccc43)n2)CCO1 [Compound 21, 2-(2-Difluoromethyl-4-hydroxybenzimidazol-1-yl)-4-(2,2-dimethylmorpholino)-6-morpholinopyrimidine] | 185 to 187 °C | – | – | – | – | – | – | – | – | ≤ 1 | ≤ 1 | ≤ 1 | –
